Test results published in ChEMBL document CHEMBL2169811, “Oncoepigenomics: making histone lysine methylation count” (Eur J Med Chem, 2012).

Assays:
[1] = molecular target: T1, Histone-lysine N-methyltransferase SUV39H1 (Homo sapiens, UniProt O43463)
T1 sequence (O43463 whole entry): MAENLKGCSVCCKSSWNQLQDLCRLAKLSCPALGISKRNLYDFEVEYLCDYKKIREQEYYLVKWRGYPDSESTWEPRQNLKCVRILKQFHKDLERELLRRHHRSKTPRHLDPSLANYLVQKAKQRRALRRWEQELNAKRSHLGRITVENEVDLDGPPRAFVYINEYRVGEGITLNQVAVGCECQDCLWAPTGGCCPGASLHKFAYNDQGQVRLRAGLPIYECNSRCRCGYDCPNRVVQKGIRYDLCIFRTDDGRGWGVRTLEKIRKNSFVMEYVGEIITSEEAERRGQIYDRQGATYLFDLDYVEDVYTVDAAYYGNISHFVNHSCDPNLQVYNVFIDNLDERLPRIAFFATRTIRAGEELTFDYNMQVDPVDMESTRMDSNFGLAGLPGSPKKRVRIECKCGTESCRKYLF

[2] = molecular target: T2, Histone-lysine N-methyltransferase EHMT2 (Homo sapiens, UniProt Q96KQ7); experiment: Inhibition of G9a
T2 sequence (Q96KQ7 whole entry): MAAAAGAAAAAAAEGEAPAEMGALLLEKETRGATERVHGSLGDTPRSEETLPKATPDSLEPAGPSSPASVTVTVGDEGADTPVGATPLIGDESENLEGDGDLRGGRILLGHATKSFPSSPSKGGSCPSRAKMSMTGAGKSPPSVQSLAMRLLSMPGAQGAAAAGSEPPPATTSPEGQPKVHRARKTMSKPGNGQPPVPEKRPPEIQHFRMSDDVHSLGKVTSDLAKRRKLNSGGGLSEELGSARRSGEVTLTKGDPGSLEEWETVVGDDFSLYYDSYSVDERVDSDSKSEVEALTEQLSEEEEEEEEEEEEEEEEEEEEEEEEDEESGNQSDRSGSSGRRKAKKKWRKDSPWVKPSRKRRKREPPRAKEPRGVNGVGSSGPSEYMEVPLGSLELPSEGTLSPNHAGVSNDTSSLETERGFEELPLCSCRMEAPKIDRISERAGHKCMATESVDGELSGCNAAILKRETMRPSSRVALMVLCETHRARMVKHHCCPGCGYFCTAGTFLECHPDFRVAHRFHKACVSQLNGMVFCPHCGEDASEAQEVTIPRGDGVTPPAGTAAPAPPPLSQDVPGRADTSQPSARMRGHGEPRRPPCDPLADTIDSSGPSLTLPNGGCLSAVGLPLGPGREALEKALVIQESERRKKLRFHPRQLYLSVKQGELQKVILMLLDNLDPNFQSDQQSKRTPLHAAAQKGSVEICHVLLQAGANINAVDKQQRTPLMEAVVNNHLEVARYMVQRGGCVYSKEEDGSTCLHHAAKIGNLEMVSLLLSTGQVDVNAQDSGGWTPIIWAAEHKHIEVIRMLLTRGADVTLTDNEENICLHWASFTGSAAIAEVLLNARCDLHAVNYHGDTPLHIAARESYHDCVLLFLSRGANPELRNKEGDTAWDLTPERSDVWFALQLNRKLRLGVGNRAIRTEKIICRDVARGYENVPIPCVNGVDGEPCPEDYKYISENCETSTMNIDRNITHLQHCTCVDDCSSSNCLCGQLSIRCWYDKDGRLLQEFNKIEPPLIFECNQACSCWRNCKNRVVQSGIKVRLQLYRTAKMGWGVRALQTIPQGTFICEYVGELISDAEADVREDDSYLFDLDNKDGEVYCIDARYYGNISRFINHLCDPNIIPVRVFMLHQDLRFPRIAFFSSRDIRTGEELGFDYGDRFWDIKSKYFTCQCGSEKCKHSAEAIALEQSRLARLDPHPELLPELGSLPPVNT

[3] = molecular target: T2, Histone-lysine N-methyltransferase EHMT2; experiment: Inhibition of G9a using [3H]-SAM as substrate preincubated for 10 mins before substrate addition measured after 30 mins by scintillation counter
[4] = molecular target: T3, Histone-arginine methyltransferase CARM1 (Homo sapiens, UniProt Q86X55)
T3 sequence (Q86X55 whole entry): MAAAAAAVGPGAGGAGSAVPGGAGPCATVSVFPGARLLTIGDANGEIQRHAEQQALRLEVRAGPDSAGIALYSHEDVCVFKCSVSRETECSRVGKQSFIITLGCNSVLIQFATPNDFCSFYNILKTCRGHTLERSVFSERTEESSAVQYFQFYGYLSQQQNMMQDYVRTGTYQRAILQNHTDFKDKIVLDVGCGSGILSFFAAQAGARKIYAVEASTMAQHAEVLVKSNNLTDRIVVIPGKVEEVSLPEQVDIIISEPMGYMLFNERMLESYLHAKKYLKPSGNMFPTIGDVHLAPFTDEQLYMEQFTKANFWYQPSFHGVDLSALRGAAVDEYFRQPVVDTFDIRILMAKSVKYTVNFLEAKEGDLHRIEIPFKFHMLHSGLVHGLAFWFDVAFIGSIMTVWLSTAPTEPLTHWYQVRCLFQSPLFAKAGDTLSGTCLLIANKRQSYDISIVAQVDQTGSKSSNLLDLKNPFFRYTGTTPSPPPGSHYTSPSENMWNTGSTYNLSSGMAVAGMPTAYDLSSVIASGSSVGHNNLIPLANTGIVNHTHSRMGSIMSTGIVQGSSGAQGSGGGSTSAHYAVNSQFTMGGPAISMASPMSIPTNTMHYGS
Description: Inhibition of human CARM1 expressed in Escherichia coli BL21 (DE3) using [3H]-SAM as substrate preincubated for 10 mins before substrate addition measured after 30 mins by scintillation counter

[5] = molecular target: T1, Histone-lysine N-methyltransferase SUV39H1; experiment: Inhibition of SUV39H1 using [3H]-SAM as substrate preincubated for 10 mins before substrate addition measured after 30 mins by scintillation counter
[6] = molecular target: Protein arginine N-methyltransferase 1 (Homo sapiens, UniProt Q99873)
Protein arginine N-methyltransferase 1, sequence (Q99873 whole entry): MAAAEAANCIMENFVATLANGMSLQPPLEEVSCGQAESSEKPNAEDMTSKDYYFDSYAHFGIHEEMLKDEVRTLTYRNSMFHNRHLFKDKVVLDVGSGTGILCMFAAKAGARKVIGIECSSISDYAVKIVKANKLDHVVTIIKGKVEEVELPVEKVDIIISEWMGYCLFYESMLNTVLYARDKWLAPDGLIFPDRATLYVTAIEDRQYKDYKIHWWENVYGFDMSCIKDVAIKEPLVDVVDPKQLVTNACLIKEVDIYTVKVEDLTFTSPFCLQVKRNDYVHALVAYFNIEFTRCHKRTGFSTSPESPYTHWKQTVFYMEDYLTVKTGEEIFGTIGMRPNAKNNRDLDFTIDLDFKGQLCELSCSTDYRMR
Description: Inhibition of PRMT1 using [3H]-SAM as substrate preincubated for 10 mins before substrate addition measured after 30 mins by scintillation counter

[7] = molecular target: T2, Histone-lysine N-methyltransferase EHMT2
Description: Inhibition of GST-tagged G9a after 1 hr by radioactive filter-binding assay

SH-SY5Y = experiment: Growth inhibition of human SH-SY5Y cells after 48 hrs by MTT assay; assay type: functional
HeLa = experiment: Growth inhibition of human HeLa cells after 48 hrs by MTT assay; assay type: functional
[8] = Growth inhibition of human KYSE-150 cells after 48 hrs by MTT assay; assay type: functional; details: KYSE-150, 48 h
PC-3 = experiment: Growth inhibition of human PC3 cells after 48 hrs by MTT assay; assay type: functional; details: PC-3, 48 h
HCT-116 [9] = experiment: Growth inhibition of human HCT116 cells after 48 hrs by MTT assay; assay type: functional; details: HCT-116, 48 h
[10] = molecular target: T4, Lysine-specific demethylase 4E (Homo sapiens, UniProt B2RXH2); experiment: Inhibition of human JMJD2E
T4 sequence (B2RXH2 whole entry): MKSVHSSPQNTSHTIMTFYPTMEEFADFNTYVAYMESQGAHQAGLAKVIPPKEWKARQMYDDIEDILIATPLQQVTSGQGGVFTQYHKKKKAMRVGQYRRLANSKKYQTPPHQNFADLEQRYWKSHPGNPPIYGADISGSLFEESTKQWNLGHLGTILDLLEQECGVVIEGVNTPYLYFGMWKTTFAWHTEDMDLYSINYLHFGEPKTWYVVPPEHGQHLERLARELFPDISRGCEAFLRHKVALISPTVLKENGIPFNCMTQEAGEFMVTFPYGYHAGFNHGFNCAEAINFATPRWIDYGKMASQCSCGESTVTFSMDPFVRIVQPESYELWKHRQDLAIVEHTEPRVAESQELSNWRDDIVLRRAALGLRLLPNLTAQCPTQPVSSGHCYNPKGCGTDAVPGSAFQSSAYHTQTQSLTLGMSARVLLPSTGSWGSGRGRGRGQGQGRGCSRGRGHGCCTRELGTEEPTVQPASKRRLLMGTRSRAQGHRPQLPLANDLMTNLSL

RKO = experiment: Growth inhibition of human RKO cells expressing p53 after 24 to 48 hrs by MTT assay; assay type: functional
HCT-116 [11] = experiment: Growth inhibition of human HCT116 cells after 24 to 48 hrs by MTT assay; assay type: functional
[12] = molecular target: T4, Lysine-specific demethylase 4E
Description: Inhibition of JMJD2E catalytic domain by mass spectrophotometric analysis

Homo sapiens [13] = organism: Homo sapiens; experiment: Selectivity ratio of IC50 for SMYD3 to IC50 for human SMYD2
Homo sapiens [14] = organism: Homo sapiens; experiment: Selectivity ratio of IC50 for SET7/9 to IC50 for human SMYD2
Homo sapiens [15] = organism: Homo sapiens; experiment: Selectivity ratio of IC50 for GLP to IC50 for human SMYD2
Homo sapiens [16] = organism: Homo sapiens; experiment: Selectivity ratio of IC50 for DOT1L to IC50 for human SMYD2
Homo sapiens [17] = organism: Homo sapiens; experiment: Selectivity ratio of IC50 for G9a to IC50 for human SMYD2
[18] = molecular target: T5, N-lysine methyltransferase SMYD2 (Homo sapiens, UniProt Q9NRG4); experiment: Competitive binding affinity to full length human SMYD2 amino acid 1 to 433 expressed in Escherichia coli BL21 (DE3) after 90 mins by radioactive filter-binding assay in presence of P53 peptide
T5 sequence (Q9NRG4 whole entry): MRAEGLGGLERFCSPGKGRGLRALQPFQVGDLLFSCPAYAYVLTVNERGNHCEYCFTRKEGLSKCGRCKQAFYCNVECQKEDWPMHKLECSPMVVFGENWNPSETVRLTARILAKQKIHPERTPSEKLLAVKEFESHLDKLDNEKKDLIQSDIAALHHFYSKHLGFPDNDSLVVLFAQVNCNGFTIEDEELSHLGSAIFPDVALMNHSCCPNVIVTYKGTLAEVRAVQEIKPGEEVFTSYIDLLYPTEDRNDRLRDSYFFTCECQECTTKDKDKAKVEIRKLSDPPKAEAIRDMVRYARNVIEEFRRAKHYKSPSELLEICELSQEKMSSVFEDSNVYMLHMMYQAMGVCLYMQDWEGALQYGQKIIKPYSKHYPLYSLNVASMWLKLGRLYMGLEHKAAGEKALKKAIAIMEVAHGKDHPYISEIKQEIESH

[19] = molecular target: T5, N-lysine methyltransferase SMYD2; experiment: Inhibition of full length human SMYD2 amino acid 1 to 433 expressed in Escherichia coli BL21 (DE3) using Biotinaminohexanoyl- GSRAHSSHLKSKKGQSTSRH as substrate after 75 mins by AlphaScreen assay
Homo sapiens [20] = organism: Homo sapiens; experiment: Selectivity ratio of IC50 for EZH2 to IC50 for human SMYD2
[21] = molecular target: Lysine-specific histone demethylase 1A (Homo sapiens, UniProt O60341)
Description: Inhibition of full length N-terminal 6x His-tagged human LSD1 expressed in Escherichia coli BL21 (DE3) using H3K4me2 peptide as substrate by luminol dependent chemiluminescence assay

[22] = molecular target: T4, Lysine-specific demethylase 4E; experiment: Inhibition of JMJD2E

CN1C(=O)[C@]23CC4=CC=C[C@H](O)[C@H]4N2C(=O)[C@@]1(CO)SS3 [GLIOTOXIN]
IC50 [1]: 0.26 µM
IC50 [2]: 0.53 µM

N[C@@H](CCCN(CCI)C[C@H]1O[C@@H](n2cnc3c(NCc4ccccc4)ncnc32)[C@H](O)[C@@H]1O)C(=O)O
IC50 [3]: > 100 µM
IC50 [4]: > 100 µM
IC50 [5]: > 100 µM
IC50 [6]: > 100 µM

CN1C(=O)[C@H]2C[C@]3([C@]45C[C@@H]6C(=O)N(C)[C@H](CO)C(=O)N6[C@H]4Nc4ccccc45)c4ccccc4N[C@@H]3N2C(=O)[C@H]1CO
IC50 [7]: > 50 µM

N[C@@H]1C[C@H]1c1ccc(OCC[C@H](NC(=O)c2ccccc2)C(=O)NCc2ccccc2)cc1
GI50 (SH-SY5Y): 6 µM
GI50 (HeLa): 6 µM
GI50 [8]: 6 µM
GI50 (PC-3): 6 µM
GI50 (HCT-116 [9]): 6 µM

CNc1ncnc2c1ncn2[C@@H]1O[C@H](CN(CCI)CCC[C@H](N)C(=O)O)[C@@H](O)[C@H]1O
IC50 [3]: > 100 µM
IC50 [4]: > 100 µM
IC50 [5]: > 100 µM

O=C(O)c1ccnc(C(=O)O)c1Nc1ccccc1F
IC50 [10]: 2.5 µM

CN1C(=O)[C@@]23C[C@]4([C@]56C[C@@]78SS[C@@](C)(C(=O)N7[C@H]5Nc5ccccc56)N(C)C8=O)c5ccccc5N[C@@H]4N2C(=O)[C@]1(C)SS3
IC50 [1]: 0.53 µM
IC50 [2]: 0.63 µM

CCNCCCCNCCCCNCCCCNCCCCNC/C=C/CNCCCCNCCCCNCCCCNCCCCNCC
GI50 (RKO): 2.5 µM
GI50 (HCT-116 [11]): 2.5 µM

CS[C@]1(CO)C(=O)N2[C@H]3C(=CC=C[C@@H]3OC(C)=O)C[C@@]2(SC)C(=O)N1C
IC50 [1]: > 10 µM
IC50 [2]: > 10 µM

O=C(O)c1ccnc(-c2cc(C(=O)NCCc3ccccc3)ccn2)c1
IC50 [12]: 0.11 µM

O=C1COc2c(CCNCCN(C(=O)CCNCCc3ccc(Cl)c(Cl)c3)C3CCCCC3)ccc(O)c2N1
Ratio IC50 (Homo sapiens [13]): 700
Ratio IC50 (Homo sapiens [14]): 700
Ratio IC50 (Homo sapiens [15]): 700
Ratio IC50 (Homo sapiens [16]): 700
Ratio IC50 (Homo sapiens [17]): 700
Ki [18]: 0.3 µM
IC50 [19]: 0.12 µM
Ratio IC50 (Homo sapiens [20]): 700

NCCNC(=O)c1ccnc(-c2cc(C(=O)O)ccn2)c1
IC50 [12]: 0.18 µM

CN1C(=O)[C@]23C[C@@]4([C@@]56C[C@]78SS[C@](CO)(C(=O)N7[C@@H]5Nc5ccccc56)N(C)C8=O)c5ccccc5N[C@H]4N2C(=O)[C@@]1(CO)SS3
IC50 [7]: 1.7 µM

CCNCCCCNCCCCNCCCCNCCCCNC/C=C\CNCCCCNCCCCNCCCCNCCCCNCC
GI50 (RKO): 2.5 µM
GI50 (HCT-116 [11]): 2.5 µM

C/N=C(\NC)NCCCNCCCNCCCN/C(=N/C)NC
IC50 [21]: 0.5 µM

O=C(O)/C=C/C(=O)N(O)CCCCNCc1ccc(COC(=O)Nc2cccc3ccccc23)cc1
GI50 [8]: 5.1 µM
IC50 [22]: 5.9 µM

NC1CC1c1cccc(OCC[C@H](NC(=O)c2ccccc2)C(=O)NCc2ccccc2)c1 (stereo partly drawn)
GI50 (SH-SY5Y): 6 µM
GI50 (HeLa): 6 µM
GI50 [8]: 6 µM
GI50 (PC-3): 6 µM
GI50 (HCT-116 [9]): 6 µM
